Experimental data as given in the supplement of paper PMC10307832.

Columns and labels:
Test in all cases: relative viability (nuclei count vs DMSO), 5 days (fraction); higher = more cells survive
Quizartinib = compound: CC(C)(C)c1cc(NC(=O)Nc2ccc(-c3cn4c(n3)sc3cc(OCCN5CCOCC5)ccc34)cc2)no1 [Quizartinib]
Procedure, shortened: (§1)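 For viability, nuclei in each treated well were divided by nuclei in vehicle wells and the median across plates was taken. Lung cancer cell lines in 1536-well plates were pinned with five library-drug doses (not always all listed) spaced by √10, cultured 5 days without medium change, and imaged at 4× after Hoechst staining, with plates passing only at control CV below 25% and at least one doubling.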

YM155 = compound: COCC[n+]1c2c(n(Cc3cnccn3)c1C)C(=O)c1ccccc1C2=O [YM155]
Procedure, shortened: as §1

Quizartinib + Navitoclax = compound: CC(C)(C)c1cc(NC(=O)Nc2ccc(-c3cn4c(n3)sc3cc(OCCN5CCOCC5)ccc34)cc2)no1 [Quizartinib] + CC1(C)CCC(c2ccc(Cl)cc2)=C(CN2CCN(c3ccc(C(=O)NS(=O)(=O)c4ccc(N[C@H](CCN5CCOCC5)CSc5ccccc5)c(S(=O)(=O)C(F)(F)F)c4)cc3)CC2)C1 [Navitoclax] (partner 0.5 µM)
Procedure, shortened: (§2)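 Five library-drug doses in √10 steps were combined with a fixed anchor-drug dose, or a single drug was given alone, by pin tool to lung cancer cell lines in 1536-well plates the day after seeding. Nuclei were stained and counted after 5 days. Relative viability is the nuclei count in treated wells over that in vehicle wells, taken as the median of duplicate plates.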

Quizartinib + Foretinib = compound: CC(C)(C)c1cc(NC(=O)Nc2ccc(-c3cn4c(n3)sc3cc(OCCN5CCOCC5)ccc34)cc2)no1 [Quizartinib] + COc1cc2c(Oc3ccc(NC(=O)C4(C(=O)Nc5ccc(F)cc5)CC4)cc3F)ccnc2cc1OCCCN1CCOCC1 [Foretinib] (partner 0.25 µM)
Procedure, shortened: as §2

Calu-6
relative viability (Quizartinib; 0.001 µM): 0.902
relative viability (Quizartinib; 0.003162 µM): 0.982
relative viability (Quizartinib; 0.01 µM): 1.05
relative viability (Quizartinib; 0.03162 µM): 0.879
relative viability (Quizartinib; 0.1 µM): 1.02
relative viability (YM155; 0.002 µM): 0.992
relative viability (YM155; 0.006325 µM): 0.996
relative viability (YM155; 0.02 µM): 0.557
relative viability (YM155; 0.06325 µM): 0.186
relative viability (Quizartinib + Navitoclax; first compound 0.001 µM): 0.749
relative viability (Quizartinib + Navitoclax; first compound 0.003162 µM): 0.877
relative viability (Quizartinib + Navitoclax; first compound 0.01 µM): 0.923
relative viability (Quizartinib + Navitoclax; first compound 0.03162 µM): 0.701
relative viability (Quizartinib + Navitoclax; first compound 0.1 µM): 0.759
relative viability (Quizartinib + Foretinib; first compound 0.001 µM): 0.74
relative viability (Quizartinib + Foretinib; first compound 0.003162 µM): 0.779
relative viability (Quizartinib + Foretinib; first compound 0.01 µM): 0.972
relative viability (Quizartinib + Foretinib; first compound 0.03162 µM): 0.88
relative viability (Quizartinib + Foretinib; first compound 0.1 µM): 0.899

ChaGo-K-1
relative viability (Quizartinib; 0.001 µM): 0.773
relative viability (Quizartinib; 0.003162 µM): 1.05
relative viability (Quizartinib; 0.01 µM): 1.01
relative viability (Quizartinib; 0.03162 µM): 0.851
relative viability (Quizartinib; 0.1 µM): 1.05
relative viability (YM155; 0.002 µM): 0.906
relative viability (YM155; 0.006325 µM): 1
relative viability (YM155; 0.02 µM): 0.987
relative viability (YM155; 0.06325 µM): 0.918
relative viability (Quizartinib + Navitoclax; first compound 0.001 µM): 0.439
relative viability (Quizartinib + Navitoclax; first compound 0.003162 µM): 1.02
relative viability (Quizartinib + Navitoclax; first compound 0.01 µM): 1.02
relative viability (Quizartinib + Navitoclax; first compound 0.1 µM): 1.52
relative viability (Quizartinib + Foretinib; first compound 0.001 µM): 0.974
relative viability (Quizartinib + Foretinib; first compound 0.003162 µM): 0.911
relative viability (Quizartinib + Foretinib; first compound 0.01 µM): 0.959
relative viability (Quizartinib + Foretinib; first compound 0.03162 µM): 0.866
relative viability (Quizartinib + Foretinib; first compound 0.1 µM): 0.949

EBC-1
relative viability (Quizartinib; 0.001 µM): 0.891
relative viability (Quizartinib; 0.003162 µM): 0.871
relative viability (Quizartinib; 0.01 µM): 0.981
relative viability (Quizartinib; 0.03162 µM): 0.922
relative viability (Quizartinib; 0.1 µM): 0.977
relative viability (YM155; 0.002 µM): 0.954
relative viability (YM155; 0.006325 µM): 0.971
relative viability (YM155; 0.02 µM): 1.07
relative viability (YM155; 0.06325 µM): 1
relative viability (Quizartinib + Navitoclax; first compound 0.001 µM): 0.411
relative viability (Quizartinib + Navitoclax; first compound 0.003162 µM): 0.436
relative viability (Quizartinib + Navitoclax; first compound 0.01 µM): 0.524
relative viability (Quizartinib + Navitoclax; first compound 0.03162 µM): 0.479
relative viability (Quizartinib + Navitoclax; first compound 0.1 µM): 0.527
relative viability (Quizartinib + Foretinib; first compound 0.001 µM): 0.0847
relative viability (Quizartinib + Foretinib; first compound 0.003162 µM): 0.105
relative viability (Quizartinib + Foretinib; first compound 0.01 µM): 0.0907
relative viability (Quizartinib + Foretinib; first compound 0.03162 µM): 0.133
relative viability (Quizartinib + Foretinib; first compound 0.1 µM): 0.121

EKVX
relative viability (Quizartinib; 0.001 µM): 0.704
relative viability (Quizartinib; 0.003162 µM): 1
relative viability (Quizartinib; 0.01 µM): 0.99
relative viability (Quizartinib; 0.03162 µM): 0.935
relative viability (Quizartinib; 0.1 µM): 1.05
relative viability (YM155; 0.002 µM): 0.927
relative viability (YM155; 0.006325 µM): 1.07
relative viability (YM155; 0.02 µM): 1.01
relative viability (YM155; 0.06325 µM): 0.857
relative viability (Quizartinib + Navitoclax; first compound 0.001 µM): 0.953
relative viability (Quizartinib + Navitoclax; first compound 0.003162 µM): 0.88
relative viability (Quizartinib + Navitoclax; first compound 0.01 µM): 0.901
relative viability (Quizartinib + Navitoclax; first compound 0.03162 µM): 0.978
relative viability (Quizartinib + Navitoclax; first compound 0.1 µM): 0.992
relative viability (Quizartinib + Foretinib; first compound 0.001 µM): 0.201
relative viability (Quizartinib + Foretinib; first compound 0.003162 µM): 0.739
relative viability (Quizartinib + Foretinib; first compound 0.01 µM): 0.749
relative viability (Quizartinib + Foretinib; first compound 0.03162 µM): 0.852
relative viability (Quizartinib + Foretinib; first compound 0.1 µM): 0.833

EMC-BAC-2
relative viability (Quizartinib; 0.001 µM): 0.919
relative viability (Quizartinib; 0.003162 µM): 0.976
relative viability (Quizartinib; 0.01 µM): 0.927
relative viability (Quizartinib; 0.1 µM): 1.05
relative viability (YM155; 0.002 µM): 0.883
relative viability (YM155; 0.006325 µM): 0.971
relative viability (YM155; 0.02 µM): 1.09
relative viability (YM155; 0.06325 µM): 0.808
relative viability (Quizartinib + Navitoclax; first compound 0.001 µM): 1.13
relative viability (Quizartinib + Navitoclax; first compound 0.003162 µM): 1.14
relative viability (Quizartinib + Navitoclax; first compound 0.01 µM): 1.31
relative viability (Quizartinib + Navitoclax; first compound 0.03162 µM): 1.18
relative viability (Quizartinib + Navitoclax; first compound 0.1 µM): 1.19
relative viability (Quizartinib + Foretinib; first compound 0.001 µM): 0.938
relative viability (Quizartinib + Foretinib; first compound 0.003162 µM): 1.02
relative viability (Quizartinib + Foretinib; first compound 0.01 µM): 1.14
relative viability (Quizartinib + Foretinib; first compound 0.1 µM): 1.01

EPLC-272H
relative viability (Quizartinib; 0.001 µM): 0.878
relative viability (Quizartinib; 0.003162 µM): 1.08
relative viability (Quizartinib; 0.01 µM): 1.03
relative viability (Quizartinib; 0.03162 µM): 1.04
relative viability (Quizartinib; 0.1 µM): 0.761
relative viability (YM155; 0.002 µM): 0.883
relative viability (YM155; 0.006325 µM): 0.989
relative viability (YM155; 0.02 µM): 1.01
relative viability (YM155; 0.06325 µM): 1.15
relative viability (Quizartinib + Navitoclax; first compound 0.001 µM): 1.06
relative viability (Quizartinib + Navitoclax; first compound 0.003162 µM): 0.964
relative viability (Quizartinib + Navitoclax; first compound 0.01 µM): 1.15
relative viability (Quizartinib + Navitoclax; first compound 0.03162 µM): 1.18
relative viability (Quizartinib + Navitoclax; first compound 0.1 µM): 1.05
relative viability (Quizartinib + Foretinib; first compound 0.001 µM): 0.535
relative viability (Quizartinib + Foretinib; first compound 0.003162 µM): 0.685
relative viability (Quizartinib + Foretinib; first compound 0.01 µM): 0.75
relative viability (Quizartinib + Foretinib; first compound 0.03162 µM): 0.682
relative viability (Quizartinib + Foretinib; first compound 0.1 µM): 0.669

H3255
relative viability (Quizartinib; 0.001 µM): 0.822
relative viability (Quizartinib; 0.003162 µM): 0.964
relative viability (Quizartinib; 0.01 µM): 0.969
relative viability (Quizartinib; 0.03162 µM): 1.03
relative viability (Quizartinib; 0.1 µM): 1.01
relative viability (YM155; 0.002 µM): 0.953
relative viability (YM155; 0.006325 µM): 0.998
relative viability (YM155; 0.02 µM): 1.01
relative viability (YM155; 0.06325 µM): 0.929
relative viability (Quizartinib + Navitoclax; first compound 0.001 µM): 0.523
relative viability (Quizartinib + Navitoclax; first compound 0.003162 µM): 0.442
relative viability (Quizartinib + Navitoclax; first compound 0.01 µM): 0.531
relative viability (Quizartinib + Navitoclax; first compound 0.03162 µM): 0.661
relative viability (Quizartinib + Navitoclax; first compound 0.1 µM): 0.468
relative viability (Quizartinib + Foretinib; first compound 0.001 µM): 0.874
relative viability (Quizartinib + Foretinib; first compound 0.003162 µM): 0.84
relative viability (Quizartinib + Foretinib; first compound 0.01 µM): 1.14
relative viability (Quizartinib + Foretinib; first compound 0.03162 µM): 1.07
relative viability (Quizartinib + Foretinib; first compound 0.1 µM): 0.763

HARA
relative viability (Quizartinib; 0.001 µM): 0.946
relative viability (Quizartinib; 0.003162 µM): 0.924
relative viability (Quizartinib; 0.01 µM): 1.05
relative viability (Quizartinib; 0.03162 µM): 0.954
relative viability (Quizartinib; 0.1 µM): 0.941
relative viability (YM155; 0.002 µM): 0.823
relative viability (YM155; 0.006325 µM): 1.15
relative viability (YM155; 0.02 µM): 1.05
relative viability (YM155; 0.06325 µM): 1.09
relative viability (Quizartinib + Navitoclax; first compound 0.001 µM): 0.783
relative viability (Quizartinib + Navitoclax; first compound 0.003162 µM): 1.14
relative viability (Quizartinib + Navitoclax; first compound 0.01 µM): 1.12
relative viability (Quizartinib + Navitoclax; first compound 0.03162 µM): 1.14
relative viability (Quizartinib + Navitoclax; first compound 0.1 µM): 1.16
relative viability (Quizartinib + Foretinib; first compound 0.003162 µM): 0.832
relative viability (Quizartinib + Foretinib; first compound 0.01 µM): 0.952
relative viability (Quizartinib + Foretinib; first compound 0.03162 µM): 0.942
relative viability (Quizartinib + Foretinib; first compound 0.1 µM): 0.913
